Values quoted from earlier work in patent US20140162261A1, “DETECTION KIT FOR IDENTIFYING GENOTYPE IN DEPRESSION PATIENTS AND METHOD OF USING THE SAME” (priority 2012, published 2014).

What was measured:
[1] = tested on: α2-adrenergic receptors
[2] = tested on: depression patients; settings: SSRIs in combination with low-dose risperidone (0.5-1 mg/day), in 1-2 days
[3] = tested on: cholinergic receptors
[4] = oral administration
[5] = target: T1, striatal dopamine D2 receptors (Homo sapiens, UniProt P14416); settings: 4 mg dose
T1 construct: host or cells: striatum (in vivo)
T1 sequence (P14416 whole entry): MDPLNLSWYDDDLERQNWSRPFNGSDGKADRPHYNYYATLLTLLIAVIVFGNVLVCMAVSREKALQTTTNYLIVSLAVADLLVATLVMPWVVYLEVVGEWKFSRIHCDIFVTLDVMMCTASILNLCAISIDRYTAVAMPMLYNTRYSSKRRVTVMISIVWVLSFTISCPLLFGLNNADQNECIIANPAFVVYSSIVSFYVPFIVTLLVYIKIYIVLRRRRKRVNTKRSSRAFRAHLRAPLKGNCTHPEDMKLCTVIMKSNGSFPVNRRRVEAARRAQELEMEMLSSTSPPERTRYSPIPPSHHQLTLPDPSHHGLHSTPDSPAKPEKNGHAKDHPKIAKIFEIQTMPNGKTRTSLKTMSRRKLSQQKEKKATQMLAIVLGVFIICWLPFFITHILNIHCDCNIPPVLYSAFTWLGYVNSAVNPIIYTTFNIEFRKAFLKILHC

Compound: Cc1nc2n(c(=O)c1CCN1CCC(c3noc4cc(F)ccc34)CC1)CCCC2 [Risperidone]
- affinity for α2-adrenergic receptors [1]: low affinity
- improvement of patients' symptoms [2]: significantly improve most of the patient's symptoms
- binding with cholinergic receptors [3]: does not bind
- effect of food on digestion (absorption) [4]: not affected by food
- blockade of striatal dopamine D2 receptors [5]: 70-80%
